Reference: patent publication US11286236B2, “Compound, agent and composition for the suppression of cancer growth” (Vector Vitale IP LLC, priority 2018, dated 2022)

Legend:
Format in all cases: cell-based
[1] = system: human Keratinocytes (HaCaT line); experiment: Metabolic activity of human keratinocytes (HaCaT line)
Protocol: In Vitro Effects of Experimental Compound ^85Rbe-E2 on metabolic activity of human Keratinocytes
(§1) Proliferative and metabolic activity of cells was determined by the colorimetric method.
(§2) The metabolic activity of the cells (i.e., the number of living cells) was assessed by MTT staining.
(§3) 24 hours after the last reagent, the cells were seeded at a concentration of 1×10^4 cells/well in wells of a 96-well plate in complete DMEM nutrient medium with 10% FBS and 40 μg/ml gentamicin. The cells were cultured in a humidified atmosphere at 5% CO2 and 37° C. for 24 hours. After 24 hours, various doses of experimental substances were added to the respective wells. The cells were incubated at 37° C. and 5% CO2 for an additional 72 hours.
(§4) Upon completion of the incubation with the preparations, the proliferative and metabolic activity of the cells in the experiment was evaluated by the colorimetric method by staining MTT cells:
(§5) 10 μl of the MTT solution (5 mg/ml of the dye in phosphate-buffered saline) was added to each well of the plate; the plate was incubated in a CO2 incubator at 37° C. for 3 hours. After that, the medium was removed from the wells, and the formed tetraformazan crystals were dissolved in 100 μl of dimethylsulfoxide.
(§6) When MTT was used, the results were evaluated using a multi-well spectrophotometer at an excitation wavelength of 540 nm. The percentage of viable cells was calculated by the formula: IR=(A540(experiment)/A540(control))×100%.

[2] = system: Normal Human Fibroblasts; experiment: Metabolic activity of normal human fibroblasts (MTT assay)
Protocol: In Vitro Assessment of the Effects of Experimental Compound ^85Rbe-E2 on metabolic Activity of Normal Human Fibroblasts (MTT Assay)
In Vitro Assessment of the Effects of E2+^85Rbe on Metabolic Activity of Normal Human Fibroblasts (MTT Assay)
as §1, §2, §3, §4, §5, §6

[3] = system: Mouse Bone Marrow Cells; experiment: Cytotoxic/cytostatic effects on mouse bone marrow cells (MTT assay)
Protocol: In Vitro Assessment of Cytotoxic/Cytostatic Effects of Experimental Compound ^85Rbe-E2 on Mouse Bone Marrow Cells
as §1, §2, §3, §4, §5, §6

[4] = system: Mouse melanoma cells (MM-4 cell line); experiment: Cytotoxic effect on melanoma cells, single agents (crystal violet)
Protocol: Materials and Methods: Mouse melanoma cells (MM-4 cell line) were seeded into 96-well plates (TPP, Italy) in DMEM (High Glucose w/L-Glutamine w/o Sodium Pyruvate; Biowest, France) supplemented with 10% newborn calf serum (Biowest, France) and […] gentamicin (Sigma, USA) at a seeding density of 5×10^4 cells/ml. The cells were then cultured in an incubator with a humidified atmosphere of 5% CO2 in air at 37° C. 24 hours after the cells were seeded, a compound according to the invention that comprises ^85Rb-enriched rubidium salt of N-benzoyl-N′-(4-toluenesulfonyl)-o-phenylenediamine of formula I was added into the appropriate wells. ^85Rbe-E2 was used at the following doses: 2.0 μg/ml, 1.0 μg/ml, 0.5 μg/ml (each is the final concentration of ^85Rbe after addition to the well). The cytotoxic effect was determined by counting the number of live cells observed after treatment, expressed as a percentage of the number of live cells observed/counted in the control (cells seed in the well and not treated). Control cells were not treated. For each concentration, the experiment was carried out twice. The effects of the drugs were evaluated visually, which allowed us to examine the morphological pattern of the cytotoxic action of the drugs, and by staining the cells with crystal violet, followed by OD measurement at an excitation wavelength of 540 nm using a MultiScan spectrophotometer. For comparison, a parallel experiment was carried out with the use of a known antitumor drug cisplatin and a compound of rubidium salt of N-benzoyl-N′-(4-toluenesulfonyl)-o-phenylenediamine of formula I which comprised a naturally-abundant mixture of isotopes of rubidium instead of being enriched for the ^85Rb isotope.

Cc1ccc(S(=O)(=O)[N-]c2ccccc2NC(=O)c2ccccc2)cc1.[Rb+] [E2 + Rb, rubidium salt of N-benzoyl-N′-(4-toluenesulfonyl)-o-phenylenediamine]
Metabolic activity of cells, % ([1]; 16 ng/ml): 104.7 ± 3.2% | Metabolic activity of cells, % ([1]; 31 ng/ml): 99.2 ± 12.5% | Metabolic activity of cells, % ([1]; 62 ng/ml): 97.3 ± 4.1% | Metabolic activity of cells, % ([1]; 0.13 μg/ml): 87.5 ± 6.7% | Metabolic activity of cells, % ([1]; 0.25 μg/ml): 95 ± 1.7% | Metabolic activity of cells, % ([1]; 0.5 μg/ml): 103 ± 2.7% | Metabolic activity of cells, % ([1]; 1 μg/ml): 130 ± 2% | Metabolic activity of cells, % ([2]; 2.5 μg/ml): 128.2 ± 8.3% | Metabolic activity of cells, % ([2]; 5 μg/ml): 103.4 ± 9.3% | Metabolic activity of cells, % ([2]; 10 μg/ml): 104.6 ± 14.2% | Metabolic activity of cells, % ([2]; 20 μg/ml): 96.8 ± 9.8% | Metabolic activity of cells, % ([2]; 38 μg/ml): 98.8 ± 7.1% | Metabolic activity of cells, % ([2]; 75 μg/ml): 97.7 ± 7.5% | Metabolic activity of cells, % ([2]; 150 μg/ml): 99.3 ± 3.2% | Metabolic activity of cells, % ([3]; 1.25 μg/ml): 111.2 ± 6.6% | Metabolic activity of cells, % ([3]; 2.5 μg/ml): 106.8 ± 6% | Metabolic activity of cells, % ([3]; 5 μg/ml): 106.7 ± 11.8% | Metabolic activity of cells, % ([3]; 10 μg/ml): 99.3 ± 4.7% | Metabolic activity of cells, % ([3]; 20 μg/ml): 88 ± 3.5% | Metabolic activity of cells, % ([3]; 38 μg/ml): 96.2 ± 4.4% | Metabolic activity of cells, % ([3]; 75 μg/ml): 105.2 ± 7.8% | Metabolic activity of cells, % ([3]; 150 μg/ml): 107.1 ± 3.8% | Number of cells after their treatment with the drug, % ([4]; 0.5 μg/ml of rubidium (85Rbe or Rb)): 90.6 ± 0.9% | Number of cells after their treatment with the drug, % ([4]; 1.0 μg/ml of rubidium (85Rbe or Rb)): 84.9 ± 0.9% | Number of cells after their treatment with the drug, % ([4]; 2.0 μg/ml of rubidium (85Rbe or Rb)): 62.1 ± 0.8% | Activity against tumor cells compared with the 85Rb-enriched salt ([4]; 0.5-2.0 μg rubidium/ml): significantly lower activity against tumor cells
